Measurements: ChEMBL document CHEMBL1759968, “Synthesis and biological evaluation of unsaturated keto and exomethylene D-arabinopyranonucleoside analogs: novel 5-fluorouracil analogs that target thymidylate synthase” (Eur J Med Chem, 2011)
Active and inactive are the calls of the source. The calls are words filed in the database; no cut-off is given here.

Experiments:
[1] = target: T1, Thymidylate synthase (Mus musculus, UniProt P07607); assay: Inhibition of thymidylate synthase in mouse L1210 cells assessed as inhibition of tritium release from [5-3H]deoxyuridine after preincubation for 15 mins by liquid scintillation counting; type: cell-based
T1 sequence (P07607 whole entry): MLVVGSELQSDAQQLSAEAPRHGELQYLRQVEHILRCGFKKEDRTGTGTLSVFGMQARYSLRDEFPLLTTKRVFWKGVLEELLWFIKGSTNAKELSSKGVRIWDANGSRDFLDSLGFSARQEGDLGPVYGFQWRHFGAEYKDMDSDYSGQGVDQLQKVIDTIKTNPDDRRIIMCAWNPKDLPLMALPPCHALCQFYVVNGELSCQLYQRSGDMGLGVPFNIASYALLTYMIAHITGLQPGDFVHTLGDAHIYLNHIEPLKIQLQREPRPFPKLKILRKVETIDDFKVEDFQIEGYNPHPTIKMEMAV

[2] = target: T1, Thymidylate synthase; assay: Inhibition of thymidylate synthase in mouse L1210 cells assessed as inhibition of tritium release from [5-3H]deoxycytidine after preincubation for 4 hrs by liquid scintillation counting; type: cell-based
[3] = target: T1, Thymidylate synthase; assay: Inhibition of thymidylate synthase in mouse L1210 cells assessed as inhibition of tritium release from [5-3H]deoxyuridine after preincubation for 24 hrs by liquid scintillation counting; type: cell-based
[4] = target: T1, Thymidylate synthase; assay: Inhibition of thymidylate synthase in mouse L1210 cells assessed as inhibition of tritium release from [5-3H]deoxycytidine after preincubation for 15 mins by liquid scintillation counting; type: cell-based
[5] = Stability of compound in phosphate buffer at pH 6.2 after 60 mins; type: physicochemical; settings: pH 6.2, 1 h
[6] = Stability of compound in phosphate buffered saline up to 3 days; type: physicochemical; settings: buffer, 72 h
[7] = target: T1, Thymidylate synthase; assay: Inhibition of thymidylate synthase in mouse L1210 cells assessed as inhibition of tritium release from [5-3H]deoxycytidine after preincubation for 24 hrs by liquid scintillation counting; type: cell-based
[8] = target: T1, Thymidylate synthase; assay: Inhibition of thymidylate synthase in mouse L1210 cells assessed as inhibition of tritium release from [5-3H]deoxyuridine after preincubation for 4 hrs by liquid scintillation counting; type: cell-based
[9] = test system: L1210; assay: Cytostatic activity against mouse L1210 cells after 2 days by coulter counting analysis; type: functional, cell-based; settings: L1210, 48 h
[10] = test system: Human alphaherpesvirus 2; assay: Antiviral activity against Herpes simplex virus type-2 infected in HEL cells assessed as inhibition of virus-induced cytopathic effect; type: functional, organism-based
[11] = test system: L1210; assay: Cytostatic activity against mouse L1210 cells in presence of 500 uM uracil; type: functional, cell-based
[12] = test system: Vesicular stomatitis virus; assay: Antiviral activity against Vesicular stomatitis virus infected in HeLa cells assessed as inhibition of virus-induced cytopathic effect; type: functional, organism-based
[13] = test system: HeLa; assay: Cytostatic activity against human HeLa cells after 3 days by coulter counting analysis; type: functional, cell-based; settings: 72 h
[14] = test system: L1210; assay: Cytostatic activity against mouse L1210 cells in presence of 20 uM thymidine; type: functional, cell-based
[15] = test system: L1210; assay: Inhibition of DNA synthesis in mouse L1210 cells assessed as [methyl-3H]thymidine incorporation in to DNA preincubated for 24 hrs by liquid scintillation counting; type: functional, cell-based
[16] = test system: L1210; assay: Inhibition of RNA synthesis in mouse L1210 cells assessed as [5-3H]uridine incorporation in to RNA preincubated for 24 hrs by liquid scintillation counting; type: functional, cell-based
[17] = test system: L1210; assay: Cytostatic activity against mouse L1210 cells in presence of 500 uM uridine; type: functional, cell-based
[18] = test system: Respiratory syncytial virus; assay: Antiviral activity against Respiratory syncytial virus infected in HeLa cells assessed as inhibition of virus-induced cytopathic effect; type: functional, organism-based
[19] = test system: HeLa; assay: Cytostatic activity against human HeLa cells in presence of 500 uM uracil; type: functional, cell-based
[20] = test system: Human alphaherpesvirus 1; assay: Antiviral activity against Herpes simplex virus type-1 infected in HEL cells assessed as inhibition of virus-induced cytopathic effect; type: functional, organism-based
[21] = test system: L1210; assay: Cytostatic activity against mouse L1210 cells in presence of 20 uM 2'-deoxyuridine; type: functional, cell-based
[22] = test system: Vesicular stomatitis virus; assay: Antiviral activity against Vesicular stomatitis virus infected in HEL cells assessed as inhibition of virus-induced cytopathic effect; type: functional, organism-based
[23] = test system: Vaccinia virus; assay: Antiviral activity against Vaccinia virus infected in HEL cells assessed as inhibition of virus-induced cytopathic effect; type: functional, organism-based; settings: Orthopoxvirus vaccinia
[24] = test system: Human respirovirus 3; assay: Antiviral activity against Human parainfluenza virus 3 infected in Vero cells assessed as inhibition of virus-induced cytopathic effect; type: functional, organism-based
[25] = test system: L1210; assay: Inhibition of DNA synthesis in mouse L1210 cells assessed as [6-3H]2'-deoxyuridine incorporation in to DNA by liquid scintillation counting; type: functional, cell-based
[26] = test system: Punta Toro virus; assay: Antiviral activity against Punta Toro virus infected in Vero cells assessed as inhibition of virus-induced cytopathic effect; type: functional, organism-based
[27] = test system: HeLa; assay: Cytostatic activity against human HeLa cells in presence of 20 uM 2'-deoxyuridine; type: functional, cell-based
[28] = test system: Coxsackievirus B4; assay: Antiviral activity against Human coxsackievirus B4 infected in HeLa cells assessed as inhibition of virus-induced cytopathic effect; type: functional, organism-based
[29] = test system: L1210; assay: Inhibition of RNA synthesis in mouse L1210 cells assessed as [5-3H]uridine incorporation in to RNA by liquid scintillation counting; type: functional, cell-based
[30] = test system: Coxsackievirus B4; assay: Antiviral activity against Human coxsackievirus B4 infected in Vero cells assessed as inhibition of virus-induced cytopathic effect; type: functional, organism-based
[31] = test system: L1210; assay: Inhibition of DNA synthesis in mouse L1210 cells assessed as [6-3H]2'-deoxyuridine incorporation in to DNA preincubated for 24 hrs by liquid scintillation counting; type: functional, cell-based
[32] = test system: L1210; assay: Inhibition of DNA synthesis in mouse L1210 cells assessed as [methyl-3H]thymidine incorporation in to DNA by liquid scintillation counting; type: functional, cell-based
[33] = test system: Sindbis virus; assay: Antiviral activity against Sindbis virus infected in Vero cells assessed as inhibition of virus-induced cytopathic effect; type: functional, organism-based
[34] = test system: HeLa; assay: Cytostatic activity against human HeLa cells in presence of 500 uM uridine; type: functional, cell-based
[35] = test system: Mammalian orthoreovirus 1; assay: Antiviral activity against Reovirus 1 infected in Vero cells assessed as inhibition of virus-induced cytopathic effect; type: functional, organism-based
[36] = test system: CCRF-CEM; assay: Cytostatic activity against human CEM cells after 3 days by coulter counting analysis; type: functional, cell-based; settings: 72 h
[37] = test system: FM3A; assay: Cytostatic activity against mouse FM3A cells after 2 days by coulter counting analysis; type: functional, cell-based; settings: 48 h
[38] = test system: HeLa; assay: Cytostatic activity against human HeLa cells in presence of 20 uM thymidine; type: functional, cell-based
[39] = test system: HeLa; assay: Ratio of compound IC50 to 5-flurouracil IC50 for human HeLa cells; type: functional
[40] = test system: L1210; assay: Ratio of compound IC50 to 5-flurouracil IC50 for mouse L1210 cells; type: functional
[41] = test system: FM3A; assay: Ratio of compound IC50 to 5-flurouracil IC50 for mouse FM3A cells; type: functional
[42] = test system: CCRF-CEM; assay: Ratio of compound IC50 to 5-flurouracil IC50 for human CEM cells; type: functional

SMILES | IC50 [1] [µM] | IC50 [2] [µM] | IC50 [3] [µM] | IC50 [4] [µM] | IC50 [7] [µM] | IC50 [8] [µM] | Activity [10] | IC50 [11] [µM] | Activity [12] | IC50 [13] [µM] | IC50 [14] [µM] | IC50 [15] [µM] | IC50 [16] [µM] | IC50 [17] [µM] | Activity [18] | IC50 [19] [µM] | Activity [20] | IC50 [21] [µM] | Activity [22] | Activity [23] | also measured
C=C1[C@H](O)[C@H](O)CO[C@@H]1n1cc(F)c(=O)[nH]c1=O | ≥ 10 | 5.5 | 0.57 | 8.2 | 5.4 | 3.6 | – | – | – | – | – | – | – | – | – | – | – | – | – | – | Stability [5]: Stable; Stability [6]: Stable
C=C1C=CCO[C@@H]1n1cc(F)c(O)nc1=O | – | – | – | – | – | – | inactive | 5.8 | inactive | 3.5 | 182 | > 500 | 84 | 5.7 | inactive | 18 | inactive | 18 | inactive | inactive | IC50 [9]: 8 µM; Activity [24]: inactive; IC50 [25]: 37 µM; Activity [26]: inactive; IC50 [27]: 1.4 µM; Activity [28]: inactive; IC50 [29]: > 100 µM; Activity [30]: inactive; IC50 [31]: 7.9 µM; IC50 [32]: > 500 µM; Activity [33]: inactive; IC50 [34]: 8 µM; Activity [35]: inactive; IC50 [36]: 85 µM; IC50 [37]: 2.4 µM; IC50 [38]: 34 µM
O=c1[nH]cc(F)c(=O)[nH]1 [FLUOROURACIL] | 7 | 0.6 | 0.02 | ≥ 10 | 0.06 | 0.22 | inactive | 0.47 | inactive | 0.45 | 21 | > 500 | 4.9 | 0.62 | inactive | 1 | inactive | 1.3 | inactive | inactive | Activity [24]: inactive; IC50 [25]: 0.97 µM; Activity [26]: inactive; IC50 [27]: 0.18 µM; Activity [28]: inactive; IC50 [29]: 51 µM; Activity [30]: inactive; IC50 [31]: 0.37 µM; IC50 [32]: > 500 µM; Activity [33]: inactive; IC50 [34]: 1.1 µM; Activity [35]: inactive; IC50 [37]: 0.18 µM; IC50 [38]: 1.5 µM
O=C1C=CCO[C@@H]1n1cc(F)c(=O)[nH]c1=O | 8.1 | 0.95 | 0.063 | > 10 | 0.071 | 0.83 | – | – | – | – | – | – | – | – | – | – | – | – | – | – | Stability [6]: Unstable
C=C1[C@H](O)[C@H](O)CO[C@@H]1n1cc(F)c(O)nc1=O | – | – | – | – | – | – | inactive | 18 | inactive | 18 | > 500 | > 500 | 282 | 18 | inactive | 58 | inactive | 66 | inactive | inactive | IC50 [9]: 21 µM; Activity [24]: inactive; IC50 [25]: 85 µM; Activity [26]: inactive; IC50 [27]: 12 µM; Activity [28]: inactive; IC50 [29]: > 100 µM; Activity [30]: inactive; IC50 [31]: 18 µM; IC50 [32]: > 500 µM; Activity [33]: inactive; IC50 [34]: 79 µM; Activity [35]: inactive; IC50 [36]: 97 µM; IC50 [37]: 1.9 µM; IC50 [38]: 146 µM
C=C1C=CCO[C@@H]1n1cc(F)c(=O)[nH]c1=O | > 10 | 9.3 | 0.43 | > 10 | 2.2 | 8.7 | – | – | – | – | – | – | – | – | – | – | – | – | – | – | Stability [5]: Stable; Stability [6]: Stable
O=C1C=CCO[C@@H]1n1cc(F)c(O)nc1=O | – | – | – | – | – | – | inactive | 1 | inactive | 0.97 | 75 | 294 | 16 | 2 | inactive | 8 | inactive | 3.5 | inactive | inactive | IC50 [9]: 1.3 µM; Ratio [39]: 1.5; Ratio [40]: 1.5; Ratio [41]: 1.5; Activity [24]: inactive; IC50 [25]: 3.1 µM; Activity [26]: inactive; IC50 [27]: 0.62 µM; Activity [28]: inactive; IC50 [29]: 63 µM; Activity [30]: inactive; IC50 [31]: 2.5 µM; IC50 [32]: 349 µM; Activity [33]: inactive; IC50 [34]: 5.3 µM; Activity [35]: inactive; IC50 [36]: 17 µM; IC50 [37]: 0.23 µM; Ratio [42]: 1.5; IC50 [38]: 7.1 µM
